Assay results reported in patent US10457914B2, “Optimized methods for differentiation of cells into cells with hepatocyte and hepatocyte progenitor phenotypes, cells produced by the methods, and methods for using the cells” (priority 2008, dated 2019).

System: rat MAPCs
Assay: In vitro hepatic differentiation of rat MAPCs, read out by qRT-PCR
Type: cell-based
Description: Undifferentiated MAPCs were expanded at large scale until several million cells were obtained. Cells then were plated at 50,000-60,000 cells/cm^2 in Matrigel (2%) coated wells. Initially, cells were cultured in expansion medium until they reached 80-90% confluency 16 hours later. Then, cells were washed twice with PBS and the medium was switched to differentiation medium. Basal differentiation medium consisted of DMEM (60%), MCDB (40%), ascorbic acid (IX), penicillin/streptomycin (1×), beta-mercaptoethanol, ITS (0.25×), LA-BSA (0.25×) and dexamethasone (10^-6M). Understanding the molecular signals favoring liver development is essential for the development of a logical in vitro differentiation protocol to modulate stem cell differentiation towards the hepatic fate. With this in mind, different cytokines at variable concentrations and chronological orders were investigated for their hepatocyte inducing capacity in […]. Cytokines tested included Nodal, its co-receptor Cripto, ActivinA, Wnt3a, BMP4, bFGF, aFGF, FGF8b, EGF, Nicotinamide, heparan sulphate proteoglycan, Oncostatin M, HGF and Follistatin. All cytokines were purchased from R&D, Minneapolis, USA. Apart from the cytokines, medium components also play an important role in guiding cells towards a specific fate. […]

Molecule: insulin: medium component (ITS); a lower amount was used to avoid adipogenesis
- expression of mature markers (albumin, TAT) (high concentration of dexamethasone together with low concentration of insulin in differentiation medium): enhanced expression of some mature markers

B1: Wnt3a: recombinant cytokine, hepatic differentiation factor, 50 ng/ml in step 1 (protein, UniProt P56704 19-352, looked up)
Protein Wnt-3a: SYPIWWSLAVGPQYSSLGSQPILCASIPGLVPKQLRFCRNYVEIMPSVAEGIKIGIQECQHQFRGRRWNCTTVHDSLAIFGPVLDKATRESAFVHAIASAGVAFAVTRSCAEGTAAICGCSSRHQGSPGKGWKWGGCSEDIEFGGMVSREFADARENRPDARSAMNRHNNEAGRQAIASHMHLKCKCHGLSGSCEVKTCWWSQPDFRAIGDFLKDKYDSASEMVVEKHRESRGWVETLRPRYTYFKVPTERDLVYYEASPNFCEPNPETGSFGTRDRTCNVSSHGIDGCDLLCCGRGHNARAERRREKCRCVFHWCCYVSCQECTRVYDVHTCK
- induction of differentiation (serum-free conditions, in the complete absence of serum cell death occurred): differentiation was induced
